Experimental findings from US20210169903A1, “PHARMACEUTICAL COMPOSITIONS AND METHODS” (Tyme, Inc., priority 2019, published 2021) are described below.

The test system of this assay is established subcutaneous CT26 murine colon carcinoma. Kind of assay: Anti-tumor activity of components of the transdermal formulation, intratumoral, tumor volume (Example 3). In kind it is in vivo, female Balb/c mice. On the set-up: TES Group Median / DT Group Median / TGD: unit not given here. Particulars: 50 μL intratumorally daily Day 11-17; for TGD: tumor growth delay versus Vehicle (0.0). As to the method:
A study is conducted to evaluate the anti-tumor activity of the components of the transdermal formulation intratumorally against established subcutaneous CT26 murine colon carcinoma in female Balb/c mice.
Vehicle control is saline solution. 3-surfactant mixture is a mixture of Nonaethylene glycol monododecyl ether, 1-Methyl-2-pyrrolidinone, and Linoleic Acid.
Tumor cells are implanted subcutaneously (Day 0). Once enrollment criteria are achieved, animals are distributed into treatment groups such that the mean tumor burden in each group is within 10% of the overall mean. Mice are dosed individually by body weight (50 μL fixed/injection intratumorally) on the day of treatment as described above. Animals are dose daily for 7 days beginning on Day 11 and ending on Day 17. Animals are held for tumor growth delay endpoint/tumor growth inhibition endpoint and complete regression/partial regression/tumor free survivor determination.

The mark [1] stands for this setting: 2nd time-point column (day not given).
[2] abbreviates: 4th time-point column (day not given).
The mark [3] stands for this setting: 5th time-point column (day not given).
Setting [4] is: 6th time-point column (day not given).
The mark [5] stands for this setting: 7th time-point column (day not given).

With `CN1CCCC1=O` [1-Methyl-2-pyrrolidinone anhydrous, 1-Methyl-2-pyrrolidinone], the “DT Group Median” value is given as 4.0, the “TES Group Median” value stood at 18.8 and the TGD is on record as 0.8. In addition, under setting [1], the “Mean Tumor Volume” value worked out at 278 mm^3 and the “Median Tumor Volume” value was determined as 295 mm^3. Where the note is “3rd time-point (day not given)”, the “Mean Tumor Volume” value came out at 428 mm^3 and the “Median Tumor Volume” value was found to be 426 mm^3. Under setting [2], the “Mean Tumor Volume” value stood at 688 mm^3 and the “Median Tumor Volume” value came to 624 mm^3. Besides, under setting [3], the “Mean Tumor Volume” value is recorded as 1008 mm^3 and the “Median Tumor Volume” value worked out at 918 mm^3. Moreover, under setting [4], the “Mean Tumor Volume” value was 1216 mm^3 and the “Median Tumor Volume” value was 1183 mm^3. Further, under setting [5], the “Mean Tumor Volume” value was determined as 1910 mm^3 and the “Median Tumor Volume” value is on record as 1812 mm^3. In addition, for the setting “day not given”, the “Mean Tumor Volume” value amounted to 134 mm^3 and the “Median Tumor Volume” value turned out to be 141 mm^3.
`CCCCC/C=C\C/C=C\CCCCCCCC(=O)O` [Linoleic Acid]: the “DT Group Median” value was found to be 3.5, the “TES Group Median” value turned out to be 18.7 and the TGD was found to be 0.6. Further, under setting [1], the “Mean Tumor Volume” value is 283 mm^3 and the “Median Tumor Volume” value is reported as 270 mm^3. For the same compound, under “3rd time-point (day not given)”, the “Mean Tumor Volume” value was 481 mm^3 and the “Median Tumor Volume” value is 411 mm^3. Besides, under setting [2], the “Mean Tumor Volume” value is 777 mm^3 and the “Median Tumor Volume” value was 700 mm^3. Also, under setting [3], the “Mean Tumor Volume” value amounted to 1291 mm^3 and the “Median Tumor Volume” value was found to be 1030 mm^3. Also, under setting [4], the “Mean Tumor Volume” value amounted to 1118 mm^3 and the “Median Tumor Volume” value is reported as 1152 mm^3. Under setting [5], the “Mean Tumor Volume” value was determined as 2035 mm^3 and the “Median Tumor Volume” value amounted to 2250 mm^3. Besides, under “day not given”, the “Mean Tumor Volume” value amounted to 132 mm^3 and the “Median Tumor Volume” value is 138 mm^3.
For the compound `CCCCCCCCCCCCOCCOCCOCCOCCOCCOCCOCCOCCOCCO` [Nonaethylene glycol monododecyl ether], the “DT Group Median” value came to 3.7, the “TES Group Median” value was 17.7 and the TGD is −0.4. Also, under setting [1], the “Mean Tumor Volume” value is on record as 236 mm^3 and the “Median Tumor Volume” value came out at 246 mm^3. For the setting “3rd time-point (day not given)”, the “Mean Tumor Volume” value amounted to 416 mm^3 and the “Median Tumor Volume” value is on record as 368 mm^3. Besides, under setting [2], the “Mean Tumor Volume” value was 761 mm^3 and the “Median Tumor Volume” value is on record as 819 mm^3. Under setting [3], the “Mean Tumor Volume” value is 996 mm^3 and the “Median Tumor Volume” value turned out to be 988 mm^3. In addition, under setting [4], the “Mean Tumor Volume” value was determined as 1364 mm^3 and the “Median Tumor Volume” value worked out at 1311 mm^3. In addition, under setting [5], the “Mean Tumor Volume” value was found to be 2017 mm^3 and the “Median Tumor Volume” value was 2009 mm^3. For the same compound, for the setting “day not given”, the “Mean Tumor Volume” value is given as 126 mm^3 and the “Median Tumor Volume” value turned out to be 125 mm^3.
